In patent US10968193B2, “Antidiabetic bicyclic compounds” (Merck Sharp & Dohme Corp., priority 2014, dated 2021):

target: T1, human GPR40 (Homo sapiens, UniProt O14842); test: Inositol Phosphate Turnover (IP1) Assay 3; format: cell-based; details: HEK cells stably expressing human GPR40
T1 construct: expressed in transfected cells; host or cells: HEK cells stably expressing the aequorin reporter
Method in brief: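 HEK cells stably expressing human GPR40, plated 16 h before, were treated with compound for 60 min at 37 °C in stimulation buffer. IP1 measured by HTRF (665/620 nm ratio) against an IP1 standard curve; activity normalized to a reference compound, EC50 from 4-parameter fit.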

T1 sequence (O14842 whole entry): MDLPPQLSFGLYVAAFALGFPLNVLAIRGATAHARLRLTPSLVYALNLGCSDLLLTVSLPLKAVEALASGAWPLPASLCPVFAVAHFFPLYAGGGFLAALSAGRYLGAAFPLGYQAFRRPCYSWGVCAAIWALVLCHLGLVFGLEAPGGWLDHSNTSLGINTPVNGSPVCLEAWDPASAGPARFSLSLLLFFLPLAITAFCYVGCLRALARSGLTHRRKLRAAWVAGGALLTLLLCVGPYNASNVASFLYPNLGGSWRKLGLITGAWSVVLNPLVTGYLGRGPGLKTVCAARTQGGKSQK

| EC50 | SMILES |
| --- | --- |
| 0.7 nM | COc1cc(-c2ccc(C3CCc4ccc([C@H](C5CC5)[C@H](C)C(=O)O)cc4O3)cc2CN2CCC3CC32)c(F)cn1 (stereo partly drawn) [Example 252] |
| 0.9 nM | CCN(C)Cc1cc(C2CCc3ccc([C@H](C4CC4)[C@H](C)C(=O)O)cc3O2)ccc1-c1cc(OC)ncc1F (stereo partly drawn) [Example 253] |
| 1 nM | COc1cc(-c2ccc(C3CCc4ccc([C@H](C5CC5)[C@H](C)C(=O)O)cc4O3)cc2CN(C)C(C)C)c(F)cn1 (stereo partly drawn) [Example 254] |
| 0.3 nM | CCN(Cc1cc(C2CCc3ccc([C@H](C4CC4)[C@H](C)C(=O)O)cc3O2)ccc1-c1cc(OC)ncc1F)C(C)C (stereo partly drawn) [Example 255] |
| 0.4 nM | COc1cc(-c2ccc(C3CCc4ccc([C@H](C5CC5)[C@H](C)C(=O)O)cc4O3)cc2CN2[C@H](C)CCC[C@H]2C)c(F)cn1 (stereo partly drawn) [Example 257] |
| 0.2 nM | COc1cc(-c2ccc(C3CCc4ccc([C@H](C5CC5)[C@H](C)C(=O)O)cc4O3)cc2CN2[C@H](C)CCC[C@@H]2C)c(F)cn1 (stereo partly drawn) [Example 259] |
| 0.9 nM | COc1cc(-c2ccc(C3CCc4ccc([C@H](C5CC5)[C@H](C)C(=O)O)cc4O3)cc2CN2CCCC3(CC3)C2)c(F)cn1 (stereo partly drawn) [Example 260] |
| 0.6 nM | COc1cc(-c2ccc(C3CCc4ccc([C@H](C5CC5)[C@H](C)C(=O)O)cc4O3)cc2CN2CCC3(CC2)CC3)c(F)cn1 (stereo partly drawn) [Example 261] |
| 0.2 nM | COc1cc(-c2ccc(C3CCc4ccc([C@H](C5CC5)[C@H](C)C(=O)O)cc4O3)cc2CN2CCCCC23CCC3)c(F)cn1 (stereo partly drawn) [Example 262] |
| 0.8 nM | COc1cc(-c2ccc(C3CCc4ccc([C@H](C5CC5)[C@H](C)C(=O)O)cc4O3)cc2CN2CCC3(CC3)C2)c(F)cn1 (stereo partly drawn) [Example 263] |
| 0.2 nM | COc1cc(-c2ccc(C3CCc4ccc([C@H](C5CC5)[C@H](C)C(=O)O)cc4O3)cc2CN2CCCC23CCC3)c(F)cn1 (stereo partly drawn) [Example 264] |
| 0.2 nM | COc1cc(-c2ccc(C3CCc4ccc([C@H](C5CC5)[C@H](C)C(=O)O)cc4O3)cc2CN2CCCC23COC3)c(F)cn1 (stereo partly drawn) [Example 265] |
| 0.1 nM | COc1cc(-c2ccc(C3CCc4ccc([C@H](C5CC5)[C@H](C)C(=O)O)cc4O3)cc2CN2CCC(C)(C)C2)c(F)cn1 (stereo partly drawn) [Example 266] |
| 0.6 nM | C[C@H](C(=O)O)[C@H](c1ccc2c(c1)OC(c1ccc(-c3cc(O)ncc3F)c(CN(C)C3CCOC3)c1)CC2)C1CC1 (stereo partly drawn) [Example 268a] |
| 6.2 nM | COc1cc(-c2ccc(C3CCc4ccc([C@H](C5CC5)[C@H](C)C(=O)O)cc4O3)cc2CN2C[C@H]3CC[C@@H]2C3)c(F)cn1 (stereo partly drawn) [Example 269] |
| 0.9 nM | COc1cc(-c2ccc(C3CCc4ccc([C@H](C5CC5)[C@H](C)C(=O)O)cc4O3)cc2CN2C3CCCC2CC3)c(F)cn1 (stereo partly drawn) [Example 270] |
| 2.6 nM | COc1cc(-c2ccc(C3CCc4ccc([C@H](C5CC5)[C@H](C)C(=O)O)cc4O3)cc2CN2CCC(C#N)CC2)c(F)cn1 (stereo partly drawn) [Example 271] |
| 278 nM | COc1cc(-c2ccc(C3CCc4ccc([C@H](C5CC5)[C@H](C)C(=O)O)cc4O3)cc2CN2CCC(C(N)=O)CC2)c(F)cn1 (stereo partly drawn) [Example 272] |
| 4.3 nM | COc1cc(-c2ccc(C3CCc4ccc([C@H](C5CC5)[C@H](C)C(=O)O)cc4O3)cc2CN2[C@H](C)CC[C@H]2C)ccn1 (stereo partly drawn) [Example 274] |
| 2.8 nM | COc1cc(-c2ccc(C3CCc4ccc([C@H](C5CC5)[C@H](C)C(=O)O)cc4O3)cc2CN2[C@H](C)CC[C@@H]2C)ccn1 (stereo partly drawn) [Example 275] |

| EC50 | SMILES |
| --- | --- |
| 0.2 nM | COc1cc(-c2ccc(C3CCc4ccc([C@H](C5CC5)[C@H](C)C(=O)O)cc4O3)cc2CN2CCCCC23CC3)ccn1 (stereo partly drawn) [Example 276] |
| 1.9 nM | COc1cc(-c2ccc(C3CCc4ccc([C@H](C5CC5)[C@H](C)C(=O)O)cc4O3)cc2CN2CCCC3(CC3)C2)ccn1 (stereo partly drawn) [Example 277] |
| 19 nM | COc1cc(-c2ccc(C3CCc4ccc([C@H](C5CC5)[C@H](C)C(=O)O)cc4O3)cc2CN2CCCC2)ccn1 (stereo partly drawn) [Example 278] |
| 30 nM | COc1cc(-c2ccc(C3CCc4ccc([C@H](C5CC5)[C@H](C)C(=O)O)cc4O3)cc2CN2CCC[C@@H]2C)ccn1 (stereo partly drawn) [Example 279] |
| 16 nM | COc1cc(-c2ccc(C3CCc4ccc([C@H](C5CC5)[C@H](C)C(=O)O)cc4O3)cc2CN2CCC[C@H]2C)ccn1 (stereo partly drawn) [Example 280] |
| 5.7 nM | COc1cc(-c2ccc(C3CCc4ccc([C@H](C5CC5)[C@H](C)C(=O)O)cc4O3)cc2CN2CCCC2(C)C)ccn1 (stereo partly drawn) [Example 281] |
| 7.4 nM | COc1cc(-c2ccc(C3CCc4ccc([C@H](C5CC5)[C@H](C)C(=O)O)cc4O3)cc2CN2CCC(C)(C)C2)ccn1 (stereo partly drawn) [Example 282] |
| 0.3 nM | COc1cc(-c2ccc([C@@H]3CCc4ccc([C@H](C5CC5)[C@H](C)C(=O)O)cc4O3)cc2CN(C(C)C)C(C)C)ccn1 [Example 284, Sodium (2S,3R)-3-cyclopropyl-3-((S)-2-(3-((diisopropylamino)methyl)-4-(2-methoxypyridin-4-yl)phenyl)chroman-7-yl)-2-methylpropanoate] |
| 4 nM | COc1cc(-c2ccc(C3CCc4ccc([C@H](C5CC5)[C@@H](C)C(=O)O)cc4O3)cc2CN(C(C)C)C(C)C)ccn1 (stereo partly drawn) [Example 285] |
| 11 nM | COc1cc(-c2ccc(C3CCc4ccc([C@H](C5CC5)[C@H](C)C(=O)O)cc4O3)cc2CN(C)C(C)C)ccn1 (stereo partly drawn) [Example 286] |
| 3.3 nM | CCN(Cc1cc(C2CCc3ccc([C@H](C4CC4)[C@H](C)C(=O)O)cc3O2)ccc1-c1ccnc(OC)c1)C(C)C (stereo partly drawn) [Example 287] |
| 21 nM | COc1cc(-c2ccc(C3CCc4ccc([C@H](C5CC5)[C@H](C)C(=O)O)cc4O3)cc2CN(C)C(C)(C)C)ccn1 (stereo partly drawn) [Example 288] |
| 72 nM | COc1cc(-c2ccc(C3CCc4ccc([C@H](C5CC5)[C@H](C)C(=O)O)cc4O3)cc2CN2[C@H]3CC[C@@H]2CC3)ccn1 (stereo partly drawn) [Example 289] |
| 22 nM | COc1cc(-c2ccc(C3CCc4ccc([C@H](C5CC5)[C@H](C)C(=O)O)cc4O3)cc2CN2C3CCCC2CC3)ccn1 (stereo partly drawn) [Example 290] |
| 3.1 nM | CCN(CC)Cc1cc(C2CCc3ccc([C@H](C4CC4)[C@H](C)C(=O)O)cc3O2)ccc1-c1cc(OC)ncc1C#N (stereo partly drawn) [Example 291] |
| 0.1 nM | COc1cc(-c2ccc(C3CCc4ccc([C@H](C5CC5)[C@H](C)C(=O)O)cc4O3)cc2CN(C(C)C)C(C)C)c(C#N)cn1 (stereo partly drawn) [Example 292] |
| 0.08 nM | COc1cc(-c2ccc(C3CCc4ccc([C@H](C5CC5)[C@H](C)C(=O)O)cc4O3)cc2CN2CCCCC23CC3)c(C#N)cn1 (stereo partly drawn) [Example 293] |
| 0.5 nM | CCN(Cc1cc(C2CCc3ccc([C@H](C4CC4)[C@H](C)C(=O)O)cc3O2)ccc1-c1cc(OC)ncc1C#N)C(C)C (stereo partly drawn) [Example 294] |
| 85 nM | C[C@H](C(=O)O)[C@H](c1ccc2c(c1)OC(c1ccc(-c3cc(O)ncc3C#N)c(CN3CCCCC34CC4)c1)CC2)C1CC1 (stereo partly drawn) [Example 295] |
| 3.9 nM | COc1ccc(F)c(-c2ccc(C3CCc4ccc([C@H](C5CC5)[C@H](C)C(=O)O)cc4O3)cc2CN2CCCCC23CC3)n1 (stereo partly drawn) [compound 190] |

target: T1, human GPR40; test: Inositol Phosphate Turnover (IP1) Assay 2; format: cell-based; details: HEK cells stably expressing human GPR40; 15,000 cells per well; compound acoustically transferred; CisBio IP-One kit
Description: Human and mouse GPR40 stable cell-lines were generated in CHO cells stably expressing NFAT BLA (Beta-lactamase). A human GPR40 stable cell-line was generated in HEK cells stably expressing the aequorin expressing reporter. The expression plasmids were transfected using lipofectamine (Life Technologies) following manufacturer's instructions. Stable cell-lines were generated following drug selection.
Inositol Phosphate Turnover (IP1) Assay 2:
The assay was performed in 384-well format. HEK cells stably expressing human GPR40 were plated at 15,000 cells per well in growth medium (DMEM/10% fetal calf serum). Cell plates were then incubated 16 hours at 37 degrees in a 5% CO2 incubator.
Measurement of Inositol Phosphate Turnover (IP1) was performed using the CisBio IP-One kit (Part number 62IPAPEB). After the 16 hour incubation, the cells were washed with HEPES buffer and 10 ul of stimulation buffer (prepared as described in the kit) was added to each well. In a separate plate, compounds were diluted in DMSO (400-fold over the final concentration in the assay well) and 25 nl was acoustically transferred to the appropriate well in the assay cell plate. The plates were then incubated for 60 minutes at 37 degrees. 10 ul of detection buffer (also prepared as described in the IP-One kit) was added to each well and the plates were incubated for 60 minutes in the dark. The plates were then read in a Perkin Elmer EnVision or equivalent reader able to measure FRET. Fluorescent ratio of emission at 665 and 620 nm was then converted to IP1 concentration by back calculating from an IP1 standard curve prepared at the time of the assay.

| EC50 | SMILES |
| --- | --- |
| 310 nM | CNCc1cc(C2CCc3ccc([C@H](C4CC4)[C@H](C)C(=O)O)cc3O2)ccc1-c1cc(OC)ncc1F (mixture of isomers) [Example 4] |
| 4.3 nM | COc1cc(-c2ccc(C3CCc4ccc([C@H](C5CC5)[C@H](C)C(=O)O)cc4O3)cc2CN2CCCC2)c(F)cn1 (mixture of isomers) [Example 9] |
| 60 nM | COc1cc(-c2ccc(C3CCc4ccc([C@H](C5CC5)[C@H](C)C(=O)O)cc4O3)nc2CN2CCOCC2)c(F)cn1 (mixture of isomers) [Example 12] |
| 210 nM | COc1cc(-c2ccc(C3CCc4ccc([C@H](C5CC5)[C@H](C)C(=O)O)cc4O3)cc2CN2CCN(C)CC2)c(F)cn1 (mixture of isomers) [Example 13, (2S,3R)-3-cyclopropyl-3-(2-(4-(5-fluoro-2-methoxypyridin-4-yl)-3-(4-methylpiperazin-1-yl)methylphenyl)chroman-7-yl)-2-methylpropanoic acid] |
| 0.7 nM | COc1cc(-c2ccc(C3CCc4ccc([C@H](C5CC5)[C@H](C)C(=O)O)cc4O3)cc2CN2CCC(F)(F)C2)c(F)cn1 (mixture of isomers) [Example 17] |
| 22 nM | COc1cc(-c2ccc(C3CCc4ccc([C@H](C5CC5)[C@H](C)C(=O)O)cc4O3)cc2CN2CC(C)C2)c(F)cn1 (mixture of isomers) [Example 35] |
| 184 nM | COc1cc(-c2ccc(C3CCc4ccc([C@H](C5CC5)[C@H](C)C(=O)O)cc4O3)cc2CN2CCn3cncc3C2)c(F)cn1 (mixture of isomers) [Example 40] |

| SMILES | EC50 |
| --- | --- |
| COc1cc(-c2ccc(C3CCc4ccc([C@H](C5CC5)[C@H](C)C(=O)O)cc4O3)cc2CN2CCNCC2)c(F)cn1 (mixture of isomers) [Example 33] | 573 nM |
